The assay concerns HHV-6 strain 7.29. Put plainly: Evaluation of PCV against HHV-6 in human cord blood cells (% infected cells by immunofluorescence). The class given is cell-based, human herpesvirus 6. The procedure:
An assay method involving the inhibition of a cytopathic effect in human cord blood cells is conducted at a dose range of 0.01 μM-100 μM. The general procedure is as described in Chapter 23 of ‘Human Herpesvirus; Epidemiology, Molecular Biology and Clinical Pathology—Conference Proceedings, Ablashi D. V. (Ed).
^aDilutions of the compounds were added 1 hr after viral inoculation of human cord blood. The % infected cells was measured by anti-complement immunofluorescence (ACIF). All numbers are averages of results of cord blood from 3 donors and triplicate readings were performed on each sample. Each reading represents actual counting of 3 fields.
Human mononuclear cells were isolated from umbilical cord blood and inoculated in triplicate with the test virus. One hour later, duplicate dilutions of the compound were added, resulting in 0, 5, 10, 50, or 100 μM final concentrations. After 3-6 days, cellls were removed and tested for the presence of virus by indirect immunofluorescence (IFA) using type specific monoclonal antibodies. Three fields of 100 cells each were read from each sample.

From patent US6683084B1, “Use of 2-amino purine derivatives for the treatment and prophylaxis of human herpes virus 6 infections” (Novartis International Pharmaceutical Ltd., priority 1993, dated 2004) come the findings set out here.

For the compound `Nc1nc2c(ncn2CCC(CO)CO)c(=O)[nH]1` [PCV, penciclovir], where the note is “Human betaherpesvirus 6, 144 h, PCV 5 μM, Day 6, read-out: % Inhib Day 6”, the inhibition at 5 µM is -5%. Also, the inhibition at 10 µM (Human betaherpesvirus 6, 144 h, PCV 10 μM, Day 6, read-out: % Inhib Day 6) is -7%. Also, the inhibition at 50 µM (Human betaherpesvirus 6, 144 h, PCV 50 μM, Day 6, read-out: % Inhib Day 6) is 12%. The inhibition at 100 µM (Human betaherpesvirus 6, 144 h, PCV 100 μM, Day 6, read-out: % Inhib Day 6) was 29%. The “% Inf Day 4” value (PCV 5 μM, Day 4, compound added 1 hr after viral inoculation) worked out at 19% and the “% Inf Day 4” value (PCV 10 μM, Day 4) turned out to be 20%. In addition, the “% Inf Day 6” value is given as 42% (PCV 5 μM), 43% (PCV 10 μM), 35% (PCV 50 μM) and 38% (PCV 100 μM).
